Experimental data taken from US9693556B2, “Herbicidal pyridazinone derivatives” (SYNGENTA LIMITED, priority 2011, dated 2017).

Key:
Assay type in all cases: in vivo
Solanum nigrum (SOLNI) [1] = assay: Post-emergence herbicidal glasshouse test on Solanum nigrum; conditions: post-emergence; 1000 g/h; evaluated after 13 days
Method in brief: (§1)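 Plants sprayed 1 day (pre-emergence) or 8 days (post-emergence) after sowing with compound at 1000 g/h in acetone/water 50:50 with 0.5% Tween 20; glasshouse 24/16° C, 14 h light, 65% humidity. Damage assessed after 13 days, scored 1–5 (5 = 80-100%, 1 = 0-19%).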

[2] = system: Alopecurus myosuroides (ALOMY); assay: Pre-emergence herbicidal glasshouse test on Alopecurus myosuroides; conditions: pre-emergence; 1000 g/h; evaluated after 13 days
Method in brief: as §1

[3] = system: Echinochloa crus-galli (ECHCG); assay: Pre-emergence herbicidal glasshouse test on Echinochloa crus-galli; conditions: pre-emergence; 1000 g/h; evaluated after 13 days
Method in brief: as §1

[4] = system: Ipomoea hederacea (IPOHE); assay: Post-emergence herbicidal glasshouse test on Ipomoea hederacea; conditions: post-emergence; 1000 g/h; evaluated after 13 days
Method in brief: as §1

Setaria faberi (SETFA) [5] = assay: Post-emergence herbicidal glasshouse test on Setaria faberi; conditions: post-emergence; 1000 g/h; evaluated after 13 days
Method in brief: as §1

Setaria faberi (SETFA) [6] = assay: Pre-emergence herbicidal glasshouse test on Setaria faberi; conditions: pre-emergence; 1000 g/h; evaluated after 13 days
Method in brief: as §1

[7] = system: Ipomoea hederacea (IPOHE); assay: Pre-emergence herbicidal glasshouse test on Ipomoea hederacea; conditions: pre-emergence; 1000 g/h; evaluated after 13 days
Method in brief: as §1

[8] = system: Echinochloa crus-galli (ECHCG); assay: Post-emergence herbicidal glasshouse test on Echinochloa crus-galli; conditions: post-emergence; 1000 g/h; evaluated after 13 days
Method in brief: as §1

Solanum nigrum (SOLNI) [9] = assay: Pre-emergence herbicidal glasshouse test on Solanum nigrum; conditions: pre-emergence; 1000 g/h; evaluated after 13 days
Method in brief: as §1

[10] = system: Amaranthus retoflexus (AMARE); assay: Pre-emergence herbicidal glasshouse test on Amaranthus retoflexus; conditions: pre-emergence; 1000 g/h; evaluated after 13 days
Method in brief: as §1

[11] = system: Alopecurus myosuroides (ALOMY); assay: Post-emergence herbicidal glasshouse test on Alopecurus myosuroides; conditions: post-emergence; 1000 g/h; evaluated after 13 days
Method in brief: as §1

[12] = system: Amaranthus retoflexus (AMARE); assay: Post-emergence herbicidal glasshouse test on Amaranthus retoflexus; conditions: post-emergence; 1000 g/h; evaluated after 13 days
Method in brief: as §1

Row | Structure (SMILES) | POST Application SOLNI herbicidal damage (five point scale) (Solanum nigrum (SOLNI) [1]) | PRE Application ALOMY herbicidal damage (five point scale) [2] | PRE Application ECHCG herbicidal damage (five point scale) [3] | POST Application IPOHE herbicidal damage (five point scale) [4] | POST Application SETFA herbicidal damage (five point scale) (Setaria faberi (SETFA) [5]) | PRE Application SETFA herbicidal damage (five point scale) (Setaria faberi (SETFA) [6]) | PRE Application IPOHE herbicidal damage (five point scale) [7] | POST Application ECHCG herbicidal damage (five point scale) [8] | PRE Application SOLNI herbicidal damage (five point scale) (Solanum nigrum (SOLNI) [9]) | PRE Application AMARE herbicidal damage (five point scale) [10] | POST Application ALOMY herbicidal damage (five point scale) [11] | POST Application AMARE herbicidal damage (five point scale) [12]
1 | Cn1ncc(-c2ccc(C(F)(F)F)cc2S(=O)(=O)N2CCOCC2)c(O)c1=O [Compound 2.049] | 5 (5=80-100% damage) | 1 (1=0-19% damage) | 5 (5=80-100% damage) | 5 (5=80-100% damage) | 1 (1=0-19% damage) | 2 (2=20-39% damage) | 4 (4=60-79% damage) | 5 (5=80-100% damage) | 5 (5=80-100% damage) | 5 (5=80-100% damage) | 1 (1=0-19% damage) | 5 (5=80-100% damage)
2 | CCOc1nn(C)c(=O)c(O)c1-c1ccc(C(F)(F)F)cc1S(C)(=O)=O [Compound 2.050] | 5 (5=80-100% damage) | 5 (5=80-100% damage) | 5 (5=80-100% damage) | 5 (5=80-100% damage) | 5 (5=80-100% damage) | 5 (5=80-100% damage) | 5 (5=80-100% damage) | 5 (5=80-100% damage) | 5 (5=80-100% damage) | 5 (5=80-100% damage) | 5 (5=80-100% damage) | 5 (5=80-100% damage)
3 | CCCOc1nn(C)c(=O)c(O)c1-c1ccc(C(F)(F)F)cc1S(C)(=O)=O [Compound 2.051, 4-hydroxy-2-methyl-5-[2-methylsulfonyl-4-(trifluoromethyl)phenyl]-6-propoxy-pyridazin-3-one] | 5 (5=80-100% damage) | 5 (5=80-100% damage) | 5 (5=80-100% damage) | 5 (5=80-100% damage) | 5 (5=80-100% damage) | 3 (3=40-59% damage) | 4 (4=60-79% damage) | 5 (5=80-100% damage) | 5 (5=80-100% damage) | 5 (5=80-100% damage) | 5 (5=80-100% damage) | 5 (5=80-100% damage)
4 | CC(C)Oc1nn(C)c(=O)c(O)c1-c1ccc(C(F)(F)F)cc1S(C)(=O)=O [Compound 2.052] | 5 (5=80-100% damage) | 4 (4=60-79% damage) | 5 (5=80-100% damage) | 5 (5=80-100% damage) | 5 (5=80-100% damage) | 3 (3=40-59% damage) | 4 (4=60-79% damage) | 5 (5=80-100% damage) | 5 (5=80-100% damage) | 5 (5=80-100% damage) | 5 (5=80-100% damage) | 5 (5=80-100% damage)
5 | Cn1ncc(-c2ccc(COCC(F)(F)F)cc2S(C)(=O)=O)c(O)c1=O [Compound 2.053] | 5 (5=80-100% damage) | 3 (3=40-59% damage) | 5 (5=80-100% damage) | 5 (5=80-100% damage) | 2 (2=20-39% damage) | 2 (2=20-39% damage) | 1 (1=0-19% damage) | 3 (3=40-59% damage) | 5 (5=80-100% damage) | 5 (5=80-100% damage) | 3 (3=40-59% damage) | 5 (5=80-100% damage)
6 | C=Cn1ncc(-c2ccccc2S(C)(=O)=O)c(O)c1=O [Compound 2.054] | 5 (5=80-100% damage) | 5 (5=80-100% damage) | 5 (5=80-100% damage) | 5 (5=80-100% damage) | 5 (5=80-100% damage) | 5 (5=80-100% damage) | 4 (4=60-79% damage) | 5 (5=80-100% damage) | 5 (5=80-100% damage) | 5 (5=80-100% damage) | 5 (5=80-100% damage) | 5 (5=80-100% damage)
7 | CS(=O)(=O)c1ccc(-c2cn[nH]c(=O)c2O)c(Cl)c1C1=NOCC1 [Compound 2.055] | 5 (5=80-100% damage) | 2 (2=20-39% damage) | 2 (2=20-39% damage) | 3 (3=40-59% damage) | 5 (5=80-100% damage) | 1 (1=0-19% damage) | 1 (1=0-19% damage) | 5 (5=80-100% damage) | 2 (2=20-39% damage) | 4 (4=60-79% damage) | 3 (3=40-59% damage) | 5 (5=80-100% damage)
8 | Cn1nc(O)c(-c2ccc(C(F)(F)F)cc2S(C)(=O)=O)c(O)c1=O [Compound 2.056] | 5 (5=80-100% damage) | 4 (4=60-79% damage) | 5 (5=80-100% damage) | 5 (5=80-100% damage) | 5 (5=80-100% damage) | 5 (5=80-100% damage) | 3 (3=40-59% damage) | 5 (5=80-100% damage) | 5 (5=80-100% damage) | 5 (5=80-100% damage) | 5 (5=80-100% damage) | 5 (5=80-100% damage)
9 | CC(=O)Oc1c(-c2ccc(C(F)(F)F)cc2S(C)(=O)=O)cnn(C)c1=O [Compound 3.001, [2-methyl-5-[2-methylsulfonyl-4-(trifluoromethyl)phenyl]-3-oxo-pyridazin-4-yl]acetate] | 5 (5=80-100% damage) | 5 (5=80-100% damage) | 5 (5=80-100% damage) | 5 (5=80-100% damage) | 5 (5=80-100% damage) | 5 (5=80-100% damage) | 5 (5=80-100% damage) | 5 (5=80-100% damage) | 5 (5=80-100% damage) | 5 (5=80-100% damage) | 5 (5=80-100% damage) | 5 (5=80-100% damage)
10 | Cn1ncc(-c2ccc(C(F)(F)F)cc2S(C)(=O)=O)c(OC(=O)c2ccccc2)c1=O [Compound 3.002] | 5 (5=80-100% damage) | 5 (5=80-100% damage) | 5 (5=80-100% damage) | 5 (5=80-100% damage) | 5 (5=80-100% damage) | 5 (5=80-100% damage) | 5 (5=80-100% damage) | 5 (5=80-100% damage) | 5 (5=80-100% damage) | 5 (5=80-100% damage) | 5 (5=80-100% damage) | 5 (5=80-100% damage)
